Test results reported in ChEMBL document CHEMBL3885881, “DrugMatrix”.

Species on record: Rattus norvegicus
Assay: DrugMatrix - Regimen: Daily Repeat
Format: toxicity, organism-based, Sprague-Dawley
Design: regimen Daily Repeat, gender Male, age 6-8 weeks
Details: in vivo, po, 0 mg/kg, route oral GAVAGE, dose level Control, […]; for ABSOLUTE BASOPHIL / ABSOLUTE EOSINOPHIL / ABSOLUTE LYMPHOCYTE / ABSOLUTE MONOCYTE / ABSOLUTE SEGMENTED NEUTROPHIL / BASOPHIL / EOSINOPHIL / ERYTHROCYTE COUNT / HEMATOCRIT / HEMOGLOBIN / LEUKOCYTE COUNT / LYMPHOCYTE / MEAN CORPUSCULAR HEMOGLOBIN / MEAN CORPUSCULAR HEMOGLOBIN CONCENTRATION / MEAN CORPUSCULAR VOLUME / MONOCYTE / NEUTROPHIL / NUCLEATED RED BLOOD CELLS / PLATELET COUNT: tissue Blood
[1] = 72 h, tissue Plasma, time 3 day
[2] = 120 h, tissue Plasma, time 5 day

O=NN(CCCl)C(=O)NC1CCCCC1 [LOMUSTINE]
ABSOLUTE BASOPHIL (72 h, time 3 day): 0 CELLS/uL
ABSOLUTE EOSINOPHIL (72 h, time 3 day): 70.67 CELLS/uL
ABSOLUTE LYMPHOCYTE (72 h, time 3 day): 12761.5 CELLS/uL
ABSOLUTE MONOCYTE (72 h, time 3 day): 214.17 CELLS/uL
ABSOLUTE SEGMENTED NEUTROPHIL (72 h, time 3 day): 987 CELLS/uL
BASOPHIL (72 h, time 3 day): 0%
EOSINOPHIL (72 h, time 3 day): 0.5%
ERYTHROCYTE COUNT (72 h, time 3 day): 5.61 x10E6/uL
HEMATOCRIT (72 h, time 3 day): 35.22%
HEMOGLOBIN (72 h, time 3 day): 13.57 G/DL
LEUKOCYTE COUNT (72 h, time 3 day): 14.03 x10E3/uL
LYMPHOCYTE (72 h, time 3 day): 91%
MEAN CORPUSCULAR HEMOGLOBIN (72 h, time 3 day): 24.25 pg
MEAN CORPUSCULAR HEMOGLOBIN CONCENTRATION (72 h, time 3 day): 38.52 G/DL
MEAN CORPUSCULAR VOLUME (72 h, time 3 day): 62.9 fL
MONOCYTE (72 h, time 3 day): 1.5%
NEUTROPHIL (72 h, time 3 day): 7%
NUCLEATED RED BLOOD CELLS (72 h, time 3 day): 0 /100WBC
PLATELET COUNT (72 h, time 3 day): 997.5 x10E3/uL
ALANINE AMINOTRANSFERASE [1]: 66.5 u/L
ALBUMIN [1]: 3.98 G/DL
ALKALINE PHOSPHATASE [1]: 350 u/L
ASPARTATE AMINOTRANSFERASE [1]: 83.83 u/L
BLOOD UREA NITROGEN [1]: 12.33 mg/dL
CARBON DIOXIDE [1]: 30.33 mmol/L
CHLORIDE [1]: 100 MEQ/L
CHOLESTEROL [1]: 75 mg/dL
CREATINE PHOSPHOKINASE [1]: 200 u/L
CREATININE [1]: 0.17 mg/dL
GLUCOSE [1]: 170 mg/dL
LACTATE DEHYDROGENASE [1]: 89.33 u/L
LIPASE [1]: 10.33 u/L
PHOSPHORUS [1]: 10.88 mg/dL
POTASSIUM [1]: 6.13 MEQ/L
SODIUM [1]: 140.53 MEQ/L
TOTAL BILIRUBIN [1]: 0.2 mg/dL
TOTAL PROTEIN [1]: 5.67 G/DL
URIC ACID [1]: 1.6 mg/dL
ABSOLUTE BASOPHIL (120 h, time 5 day): 0 CELLS/uL
ABSOLUTE EOSINOPHIL (120 h, time 5 day): 0 CELLS/uL
ABSOLUTE LYMPHOCYTE (120 h, time 5 day): 9526.67 CELLS/uL
ABSOLUTE MONOCYTE (120 h, time 5 day): 134.17 CELLS/uL
ABSOLUTE SEGMENTED NEUTROPHIL (120 h, time 5 day): 922.5 CELLS/uL
BASOPHIL (120 h, time 5 day): 0%
EOSINOPHIL (120 h, time 5 day): 0%
ERYTHROCYTE COUNT (120 h, time 5 day): 5.58 x10E6/uL
HEMATOCRIT (120 h, time 5 day): 34.78%
HEMOGLOBIN (120 h, time 5 day): 13.5 G/DL
LEUKOCYTE COUNT (120 h, time 5 day): 10.58 x10E3/uL
LYMPHOCYTE (120 h, time 5 day): 90.17%
MEAN CORPUSCULAR HEMOGLOBIN (120 h, time 5 day): 24.27 pg
MEAN CORPUSCULAR HEMOGLOBIN CONCENTRATION (120 h, time 5 day): 38.82 G/DL
MEAN CORPUSCULAR VOLUME (120 h, time 5 day): 62.48 fL
MONOCYTE (120 h, time 5 day): 1.17%
NEUTROPHIL (120 h, time 5 day): 8.67%
NUCLEATED RED BLOOD CELLS (120 h, time 5 day): 0.17 /100WBC
PLATELET COUNT (120 h, time 5 day): 807.17 x10E3/uL
ALANINE AMINOTRANSFERASE [2]: 66.83 u/L
ALBUMIN [2]: 3.73 G/DL
ALKALINE PHOSPHATASE [2]: 286.17 u/L
ASPARTATE AMINOTRANSFERASE [2]: 142.33 u/L
BLOOD UREA NITROGEN [2]: 14.67 mg/dL
CARBON DIOXIDE [2]: 25.5 mmol/L
CHLORIDE [2]: 89.17 MEQ/L
CHOLESTEROL [2]: 75.17 mg/dL
CREATINE PHOSPHOKINASE [2]: 310.67 u/L
CREATININE [2]: 0.2 mg/dL
GLUCOSE [2]: 153 mg/dL
LACTATE DEHYDROGENASE [2]: 1594 u/L
LIPASE [2]: 14.83 u/L
PHOSPHORUS [2]: 11.28 mg/dL
POTASSIUM [2]: 8.46 MEQ/L
SODIUM [2]: 126.88 MEQ/L
TOTAL BILIRUBIN [2]: 0.37 mg/dL
TOTAL PROTEIN [2]: 5.53 G/DL
